Legend:
[1] = tested on: DNA; experiment: Binding affinity to calf thymus DNA at pH 7.0 at 20 uM by thermal denaturation assay; format: nucleic-acid assay; conditions: Bos taurus
[2] = tested on: DNA; experiment: Binding affinity to calf thymus DNA at pH 7.0 at 20 uM after 18 hrs by thermal denaturation assay; format: nucleic-acid assay; conditions: Bos taurus
[3] = tested on: CCRF-CEM; experiment: Growth inhibition of human CCRF-CEM cells; format: functional
[4] = tested on: HL-60; experiment: Growth inhibition of human HL60(TB) cells; format: functional
[5] = tested on: K562; experiment: Growth inhibition of human K562 cells; format: functional
[6] = tested on: MOLT-4; experiment: Growth inhibition of human MOLT4 cells; format: functional
[7] = tested on: RPMI-8226; experiment: Growth inhibition of human RPMI8226 cells; format: functional
[8] = tested on: SR; experiment: Growth inhibition of human SR cells; format: functional
[9] = tested on: A549; experiment: Growth inhibition of human A549 cells; format: functional
[10] = tested on: EKVX; experiment: Growth inhibition of human EKVX cells; format: functional
[11] = tested on: HOP-62; experiment: Growth inhibition of human HOP62 cells; format: functional
[12] = tested on: NCI-H322M; experiment: Growth inhibition of human NCI-H322M cells; format: functional
[13] = tested on: NCI-H460; experiment: Growth inhibition of human NCI-H460 cells; format: functional
[14] = tested on: NCI-H522; experiment: Growth inhibition of human NCI-H522 cells; format: functional
[15] = tested on: COLO 205; experiment: Growth inhibition of human COLO 205 cells; format: functional
[16] = tested on: HCC 2998; experiment: Growth inhibition of human HCC2998 cells; format: functional
[17] = tested on: HCT-116; experiment: Growth inhibition of human HCT116 cells; format: functional
[18] = tested on: HCT-15; experiment: Growth inhibition of human HCT15 cells; format: functional
[19] = tested on: HT-29; experiment: Growth inhibition of human HT29 cells; format: functional
[20] = tested on: KM12; experiment: Growth inhibition of human KM12 cells; format: functional
[21] = tested on: SW-620; experiment: Growth inhibition of human SW620 cells; format: functional
[22] = tested on: SF-268; experiment: Growth inhibition of human SF268 cells; format: functional
[23] = tested on: SF-539; experiment: Growth inhibition of human SF539 cells; format: functional
[24] = tested on: SNB-19; experiment: Growth inhibition of human SNB19 cells; format: functional
[25] = tested on: SNB-75; experiment: Growth inhibition of human SNB75 cells; format: functional
[26] = tested on: U-251; experiment: Growth inhibition of human U251 cells; format: functional
[27] = tested on: LOX IMVI; experiment: Growth inhibition of human LOX IMVI cells; format: functional
[28] = tested on: Malme-3M; experiment: Growth inhibition of human MALME-3M cells; format: functional
[29] = tested on: M14; experiment: Growth inhibition of human M14 cells; format: functional
[30] = tested on: SK-MEL-2; experiment: Growth inhibition of human SK-MEL-2 cells; format: functional
[31] = tested on: SK-MEL-28; experiment: Growth inhibition of human SK-MEL-28 cells; format: functional
[32] = tested on: SK-MEL-5; experiment: Growth inhibition of human SK-MEL-5 cells; format: functional
[33] = tested on: UACC-257; experiment: Growth inhibition of human UACC257 cells; format: functional
[34] = tested on: UACC-62; experiment: Growth inhibition of human UACC62 cells; format: functional
[35] = tested on: IGROV-1; experiment: Growth inhibition of human IGROV1 cells; format: functional
[36] = tested on: OVCAR-3; experiment: Growth inhibition of human OVCAR-3 cells; format: functional
[37] = tested on: OVCAR-4; experiment: Growth inhibition of human OVCAR4 cells; format: functional
[38] = tested on: OVCAR-5; experiment: Growth inhibition of human OVCAR5 cells; format: functional
[39] = tested on: OVCAR-8; experiment: Growth inhibition of human OVCAR8 cells; format: functional
[40] = tested on: SK-OV-3; experiment: Growth inhibition of human SK-OV-3 cells; format: functional
[41] = tested on: 786-0; experiment: Growth inhibition of human 786-0 cells; format: functional
[42] = tested on: ACHN; experiment: Growth inhibition of human ACHN cells; format: functional
[43] = tested on: CAKI-1; experiment: Growth inhibition of human CAKI1 cells; format: functional
[44] = tested on: RXF 393; experiment: Growth inhibition of human RXF 393 cells; format: functional
[45] = tested on: SN12C; experiment: Growth inhibition of human SN12C cells; format: functional
[46] = tested on: TK-10; experiment: Growth inhibition of human TK10 cells; format: functional
[47] = tested on: UO-31; experiment: Growth inhibition of human UO31 cells; format: functional
[48] = Growth inhibition of human HS 578T cells; format: functional
[49] = tested on: DU-145; experiment: Growth inhibition of human DU145 cells; format: functional
[50] = tested on: MCF7; experiment: Growth inhibition of human MCF7 cells; format: functional
[51] = tested on: NCI/ADR-RES; experiment: Growth inhibition of human NCI/ADR-RES cells; format: functional
[52] = Growth inhibition of human 231/ATCC cells; format: functional
[53] = tested on: MDA-MB-435; experiment: Growth inhibition of human MDA-MB-435 cells; format: functional
[54] = tested on: BT-549; experiment: Growth inhibition of human BT549 cells; format: functional
[55] = tested on: T47D; experiment: Growth inhibition of human T47D cells; format: functional
[56] = tested on: MDA-MB-468; experiment: Growth inhibition of human MDA-MB-468 cells; format: functional
[57] = tested on: HOP-92; experiment: Growth inhibition of human HOP92 cells; format: functional
[58] = tested on: NCI-H226; experiment: Growth inhibition of human NCI-H226 cells; format: functional
[59] = tested on: NCI-H23; experiment: Growth inhibition of human NCI-H23 cells; format: functional
[60] = tested on: L1210; experiment: Cytotoxicity against mouse L1210 cells; format: functional; conditions: read-out: LC50 (the source's name)
[61] = tested on: PC-6; experiment: Cytotoxicity against human PC6 cells; format: functional; conditions: read-out: LD50 (the source's name)

COc1cc(/C=C/C(=O)c2ccccc2O)ccc1OCCCCCOc1cc2c(cc1OC)C(=O)N1CCC[C@H]1C(=O)N2 gave a deltaTm [1] of 7.1 °C and a deltaTm [2] of 9 °C.
In the case of COc1cc(/C=C/C(=O)c2ccccc2O)ccc1OCCCCOc1cc2c(cc1OC)C(=O)N1CCC[C@H]1C=N2, the deltaTm [1] is reported as 1.7 °C and the deltaTm [2] is reported as 2.1 °C.
Compound COc1cc(/C=C/C(=O)c2ccccc2O)ccc1OCCCCCOc1cc2c(cc1OC)C(=O)N1CCC[C@H]1C=N2 has a deltaTm [1] of 3.1 °C and a deltaTm [2] of 5 °C.
Compound COc1cc(/C=C/C(=O)c2ccccc2O)ccc1OCCCOc1cc2c(cc1OC)C(=O)N1CCC[C@H]1C=N2 has a deltaTm [1] of 5 °C, a deltaTm [2] of 8.1 °C and a GI50 [3] of 21 nM. It also gave a GI50 [4] of 17 nM, a GI50 [5] of 26 nM and a GI50 [6] of 17 nM. The GI50 [7] was 25 nM, the GI50 [8] was 12 nM and the GI50 [9] was 31 nM. It also gave a GI50 [10] of 204 nM, a GI50 [11] of 39 nM and a GI50 [12] of 307 nM. For the same compound, the GI50 [13] was 34 nM, the GI50 [14] was 26 nM and the GI50 [15] was 27 nM. For the same compound, the GI50 [16] was 138 nM, the GI50 [17] was 33 nM and the GI50 [18] was 247 nM. For the same compound, the GI50 [19] was 30 nM, the GI50 [20] was 18 nM and the GI50 [21] was 19 nM. For the same compound, the GI50 [22] was 24 nM, the GI50 [23] was 28 nM and the GI50 [24] was 29 nM. For the same compound, the GI50 [25] was 36 nM, the GI50 [26] was 22 nM and the GI50 [27] was 18 nM. For the same compound, the GI50 [28] was 37 nM, the GI50 [29] was 46 nM and the GI50 [30] was 67 nM. It also gave a GI50 [31] of 20 nM, a GI50 [32] of 24 nM and a GI50 [33] of 112 nM. It also gave a GI50 [34] of 21 nM, a GI50 [35] of 18 nM and a GI50 [36] of 21 nM. For the same compound, the GI50 [37] was 61 nM, the GI50 [38] was 25 nM and the GI50 [39] was 36 nM. It also gave a GI50 [40] of 406 nM, a GI50 [41] of 25 nM and a GI50 [42] of 47 nM. The GI50 [43] was 25 nM, the GI50 [44] was 20 nM and the GI50 [45] was 28 nM. It also gave a GI50 [46] of 41 nM, a GI50 [47] of 105 nM and a GI50 [48] of 23 nM. It also gave a GI50 [49] of 25 nM, a GI50 [50] of 32 nM and a GI50 [51] of 308 nM. For the same compound, the GI50 [52] was 26 nM, the GI50 [53] was 19 nM and the GI50 [54] was 17 nM. The GI50 [55] was 29 nM, the GI50 [56] was 16 nM and the GI50 [57] was 44 nM. For the same compound, the GI50 [58] was 138 nM and the GI50 [59] was 39 nM.
Work on COc1cc(/C=C/C(=O)c2ccccc2O)ccc1OCCCCOc1cc2c(cc1OC)C(=O)N1CCC[C@H]1C(=O)N2 yielded a deltaTm [1] of 1 °C and a deltaTm [2] of 1.9 °C.
In the case of COc1cc(/C=C/C(=O)c2ccccc2O)ccc1OCCCOc1cc2c(cc1OC)C(=O)N1CCC[C@H]1C(=O)N2, the deltaTm [1] is reported as 2 °C and the deltaTm [2] is reported as 3.5 °C.
In the case of COc1cc2c(cc1O)N=C[C@@H]1CCCN1C2=O, the deltaTm [1] is reported as 0.3 °C, the deltaTm [2] is reported as 0.7 °C and the CC50 [60] is reported as 380 nM. For the same compound, the CC50 [61] was 330 nM.
